Drawing on patent publication US9937180B2, “Constrained tricyclic sulfonamides” (ICAHN SCHOOL OF MEDICINE AT MOUNT SINAI, priority 2014, dated 2018), this text covers GI50 for 21 compounds.

SMILES strings stand for the structures.

For one experiment, the system named is H1650. As to the kind of experiment: H1650 Cell Viability Assays (GI50 Determination), MTT. Type of experiment: cell-based. To be noted: Homo sapiens, NCI-H1650, H1650 cells, 48 hours after drug treatment. As to the method:
H1650 Cell Viability Assays (GI50 Determination)
Cell viability assays were performed according to Denizot, F. and R. Lang, Rapid colorimetric assay for cell growth and survival: Modifications to the tetrazolium dye procedure giving improved sensitivity and reliability Journal of Immunological Methods, 1986. 89[…]: p. 271-277.
Cells were plated at 150,000 cells per well in a 12 well plate. Twenty-four hours after plating, cells were treated as described with increasing concentrations of drug and control. Forty-eight hours after drug treatment, cells were treated with 100 uL of 3-(4,5-Dimethylthiazol-2-yl)-2,5-diphenyltetrazolium bromide (MTT) and incubated for 2 hours at 37 C. The MTT solution was subsequently replaced with 300 uL of n-propyl alcohol and re-aliquoted to a 96 well plates. Spectrophotometric analysis of each solution was performed using a 96 well plate reader at 600 nm in triplicate.

For a further experiment, the system named is Molt4 cells. Put plainly: MTS Cell Proliferation Assay (CellTiter96 AQueous). The format is cell-based. Particulars: Homo sapiens, MOLT-4, 48 hours, average of 3 biological replicates. As to the method: MTS Cell Proliferation Assay GI50 for Example 3a and 3b for Molt4 cells was measured using the CellTiter96 AQueous Non-Radioactive Cell Proliferation Assay (Promega). Briefly, two technical replicates of 1×10^5 cells suspended in 50 μL RPMI-1640 media were pipetted per well into a 96-well plate for each condition. An equal volume of Example 3a or 3b was dissolved in media or vehicle control (DMSO) was added to each well for final concentration of 0, 5, 10, 15, 20, 30, 40, or 80 μM of 3a or 3b. Cells were allowed to grow for 48 hours at 37° C. with 5% CO2, after which 20 μL of MTS/PMS solution was added to each well and cells were incubated for an additional 4 hrs. At the end of the incubation period, A490 was read on a Biotek uQuant spectrophotometer to measure formazen production. Relative viability was calculated as A490 for each drug condition relative to vehicle alone.

Usually GI50 stands for the concentration at which growth is held to half of that of the control. Read a high GI50 as lower sensitivity of the cells. Consider `O=S(=O)(N[C@H]1CCC[C@@H](N2c3ccccc3C=Cc3ccccc32)[C@@H]1O)c1ccc(OC(F)(F)F)cc1` (racemic) [Example 25, rac-N-((1S,2S,3R)-3-(5H-dibenzo[b,f]azepin-5-yl)-2-hydroxycyclohexyl)-4-(trifluoromethoxy)benzenesulfonamide], for which, in the experiment with H1650, the GI50 was 10 µM.

With `O=S(=O)(N[C@@H]1CCCC(N2c3ccccc3CCc3ccccc32)[C@H]1O)c1ccc(OC(F)(F)F)cc1` (relative stereo) [Example 1, N-((1,2-trans)-3-(10,11-dihydro-5H-dibenzo[b,f]azepin-5-yl)-2-hydroxycyclohexyl)-4-(trifluoromethoxy)benzenesulfonamide], the GI50 in the experiment on H1650 worked out at 5 µM.

As for `O=S(=O)(N[C@H]1CCCC(N2c3ccccc3CCc3ccccc32)[C@@H]1O)c1ccc(OC(F)(F)F)cc1` (relative stereo) [Example 2, N-((1,2-trans)-3-(10,11-dihydro-5H-dibenzo[b,f]azepin-5-yl)-2-hydroxycyclohexyl)-4-(trifluoromethoxy)benzenesulfonamide], in the experiment with H1650, the GI50 came to 15 µM.

In the case of `O=S(=O)(N[C@@H]1CCCC(N2c3ccccc3CCc3ccccc32)[C@H]1O)c1ccc(Cl)cc1` (relative stereo) [Example 4, N-(3-(10,11-dihydro-5H-dibenzo[b,f]azepin-5-yl)-2-hydroxycyclohexyl)-4-(chloro)benzenesulfonamide], the GI50 in the experiment on H1650 is 10 µM.

`O=S(=O)(N[C@@H]1CCC(N2c3ccccc3CCc3ccccc32)[C@H]1O)c1ccc(OC(F)(F)F)cc1` (relative stereo) [Example 17, N-((1S,2S,3R)-rel-3-(10,11-dihydro-5H-dibenzo[b,f]azepin-5-yl)-2-hydroxycyclopentyl)-4-(trifluoromethoxy)benzenesulfonamide]: the GI50 in the experiment with H1650 turned out to be 15 µM.

On to `O=S(=O)(N[C@@H]1CCC(N2c3ccccc3CCc3ccccc32)[C@H]1O)c1ccc(Cl)cc1` (relative stereo) [Example 18, 4-chloro-N-((1S,2S,3R)-rel-3-(10,11-dihydro-5H-dibenzo[b,f]azepin-5-yl)-2-hydroxycyclopentyl)benzenesulfonamide], for which the GI50 with H1650 amounted to 20 µM.

`O=S(=O)(N[C@@H]1CCCC(N2c3ccccc3Sc3ccccc32)[C@H]1O)c1ccc(OC(F)(F)F)cc1` (relative stereo) [Example 20, N-((1R,2R,3S)-rel-2-hydroxy-3-(10H-phenothiazin-10-yl)cyclohexyl)-4-(trifluoromethoxy)benzenesulfonamide] yielded a GI50 in the experiment with H1650 of 5 µM.

In the experiment with H1650, `O=S(=O)(N[C@@H]1CCCC(N2c3ccccc3Sc3ccccc32)[C@H]1O)c1ccc(Cl)cc1` (relative stereo) [Example 21, 4-chloro-N-((1R,2R,3S)-rel-2-hydroxy-3-(10H-phenothiazin-10-yl)cyclohexyl)benzenesulfonamide] had a GI50 of 10 µM.

Regarding `[N-]=[N+]=Nc1ccc(S(=O)(=O)N[C@@H]2CCCC(N3c4ccccc4CCc4ccccc43)[C@H]2O)cc1` (stereo in doubt) [Example 5, N-(3-(10,11-dihydro-5H-dibenzo[b,f]azepin-5-yl)-2-hydroxycyclohexyl)-4-(azido)benzenesulfonamide], the GI50 in the experiment with H1650 stood at 15 µM.

`O=S(=O)(N[C@H]1CCC[C@@H](N2c3ccccc3CCc3ccccc32)[C@@H]1O)c1ccc(OC(F)(F)F)cc1Cl` (stereo in doubt) [Example 29, 2-chloro-N-(3-(10,11-dihydro-5H-dibenzo[b,f]azepin-5-yl)-2-hydroxycyclohexyl)-4-(trifluoromethoxy)benzenesulfonamide] returned a GI50 in the experiment on H1650 of 5 µM.

The compound `O=S(=O)(N[C@H]1CCC[C@@H](N2c3ccccc3CCc3ccccc32)[C@@H]1O)c1ccc(OC(F)F)cc1` (stereo in doubt) [Example 32, 4-(difluoromethoxy)-N-(3-(10,11-dihydro-5H-dibenzo[b,f]azepin-5-yl)-2-hydroxycyclohexyl)benzenesulfonamide] registered a GI50 in the experiment on H1650 of 10 µM.

The compound `O=S(=O)(N[C@H]1CCC[C@@H](N2c3ccccc3CCc3ccccc32)[C@@H]1O)c1ccc(OC(F)(F)F)c(Cl)c1` (stereo in doubt) [Example 33, 3-chloro-N-(3-(10,11-dihydro-5H-dibenzo[b,f]azepin-5-yl)-2-hydroxycyclohexyl)-4-(trifluoromethoxy)benzenesulfonamide] gave a GI50 in the experiment with H1650 of 5 µM.

In the case of `O=S(=O)(N[C@@H]1CCC[C@H](N2c3ccccc3CCc3ccccc32)[C@H]1O)c1ccc(OC(F)(F)F)cc1` [Example 3b], the GI50 in the experiment on H1650 was 5 µM; in the experiment on Molt4 cells, 8 µM.

With `O=S(=O)(N[C@H]1CCC[C@@H](N2c3ccc(F)cc3CCc3cc(F)ccc32)[C@@H]1O)c1ccc(OC(F)(F)F)cc1` [Example 22, N-((1S,2S,3R)-3-(2,8-difluoro-10,11-dihydro-5H-dibenzo[b,f]azepin-5-yl)-2-hydroxycyclohexyl)-4-(trifluoromethoxy)benzenesulfonamide], the GI50 with H1650 stood at 7 µM.

`COc1ccc(S(=O)(=O)N[C@H]2CCC[C@@H](N3c4ccccc4CCc4ccccc43)[C@@H]2O)cc1` [Example 23, N-((1S,2S,3R)-3-(10,11-dihydro-5H-dibenzo[b,f]azepin-5-yl)-2-hydroxycyclohexyl)-4-methoxybenzenesulfonamide] returned a GI50 with H1650 of 20 µM.

In turn, `O=S(=O)(N[C@H]1CCC[C@@H](N2c3ccccc3CCc3cc(F)ccc32)[C@@H]1O)c1ccc(OC(F)(F)F)cc1` [Example 24, N-((1S,2S,3R)-3-(2-fluoro-10,11-dihydro-5H-dibenzo[b,f]azepin-5-yl)-2-hydroxycyclohexyl)-4-(trifluoromethoxy)benzenesulfonamide] had a GI50 in the experiment on H1650 of 5 µM.

For the compound `CC(=O)c1ccc(S(=O)(=O)N[C@H]2CCC[C@@H](N3c4ccccc4CCc4ccccc43)[C@@H]2O)cc1` [Example 26, 4-Acetyl-N-((1S,2S,3R)-3-(10,11-dihydro-5H-dibenzo[b,f]azepin-5-yl)-2-hydroxycyclohexyl)benzenesulfonamide], the GI50 in the experiment on H1650 worked out at 20 µM.

Take `CC(C)(O)c1ccc(S(=O)(=O)N[C@H]2CCC[C@@H](N3c4ccccc4CCc4ccccc43)[C@@H]2O)cc1` [Example 27, N-((1S,2S,3R)-3-(10,11-dihydro-5H-dibenzo[b,f]azepin-5-yl)-2-hydroxycyclohexyl)-4-(2-hydroxypropan-2-yl)benzenesulfonamide]: in the experiment on H1650, it took 15 µM to inhibit growth by half (GI50).

`O=S(=O)(N[C@H]1CCC[C@@H](N2c3ccccc3CCc3ccccc32)[C@@H]1O)c1ccc(SC(F)(F)F)cc1` [Example 28, N-(3-(10,11-dihydro-5H-dibenzo[b,f]azepin-5-yl)-2-hydroxycyclohexyl)-4-((trifluoromethyl)thio)benzenesulfonamide] returned a GI50 in the experiment with H1650 of 5 µM.

`O=S(=O)(N[C@H]1CCC[C@@H](N2c3ccccc3CCc3ccccc32)[C@@H]1O)c1ccc(CC(F)(F)F)cc1` [Example 30, N-(3-(10,11-dihydro-5H-dibenzo[b,f]azepin-5-yl)-2-hydroxycyclohexyl)-4-(2,2,2-trifluoroethyl)benzenesulfonamide]: the GI50 in the experiment on H1650 is 5 µM.

`O=S(=O)(N[C@H]1CCC[C@@H](N2c3ccccc3CCc3ccccc32)[C@@H]1O)c1ccc(C(F)(F)C(F)(F)F)cc1` [Example 31, N-(3-(10,11-dihydro-5H-dibenzo[b,f]azepin-5-yl)-2-hydroxycyclohexyl)-4-(perfluoroethyl)benzenesulfonamide] yielded a GI50 in the experiment on H1650 of 5 µM.
